Values joined by “and” are separate entries in the source; they are usually repeats but may differ in a detail not shown here. Equal entries are not always repeated.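 Test compounds were applied to cells in 96-well plates for 48 hours at 5 doses. GI50 = concentration required for 50% inhibition of growth. TGI denotes the concentration required for complete inhibition of growth.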
Experiments:
Test in all cases: growth of human tumour cells (NCI), 48 h
MOLT-4 leukemia = tested on: MOLT-4 leukemia
SW-620 colon = tested on: SW-620 colon
CCRF-CEM leukemia = tested on: CCRF-CEM leukemia
M14 melanoma = tested on: M14 melanoma
HT29 colon = tested on: HT29 colon
HCC-2998 colon = tested on: HCC-2998 colon
SK-OV-3 ovarian = tested on: SK-OV-3 ovarian
ACHN renal = tested on: ACHN renal
UACC-62 melanoma = tested on: UACC-62 melanoma
SR leukemia = tested on: SR leukemia

Compound | TGI (MOLT-4 leukemia) | TGI (SW-620 colon) | TGI (CCRF-CEM leukemia) | TGI (M14 melanoma) | TGI (HT29 colon) | TGI (HCC-2998 colon) | TGI (SK-OV-3 ovarian) | TGI (ACHN renal) | TGI (UACC-62 melanoma) | TGI (SR leukemia) [µM] | GI50 (SW-620 colon) | GI50 (CCRF-CEM leukemia) | GI50 (M14 melanoma) | GI50 (HT29 colon) | GI50 (HCC-2998 colon) | GI50 (SR leukemia) [µM] | GI50 (ACHN renal) | GI50 (UACC-62 melanoma) [µM] | GI50 (MOLT-4 leukemia) [µM] | GI50 (SK-OV-3 ovarian) [µM]
COc1ccc(OCC(=O)O)c2c1CCC(C)C2=O (stereo not drawn) | > 100 µM | > 100 µM | > 100 µM | > 100 µM | > 100 µM | > 100 µM | > 100 µM | > 100 µM | > 100 µM | – | – | – | – | – | – | – | – | – | – | –
BrCc1ccc2ccc3ccc(CBr)nc3c2n1 | 4.66 µM | 5.86 µM | 3.75 µM | 8.79 µM | 4.61 µM | 8.73 µM | – | 5.58 µM | > 37.8 µM | 5.54 | – | – | – | – | – | – | – | – | – | –
O=C(OCC1=CC(=O)c2ccccc2C1=O)c1ccccc1 | – | 17.5 µM | 35.4 µM | 3.59 µM | 37.7 µM | 18.8 µM | – | 28.4 µM | 9.02 µM | 30.8 | 4.89 µM | 6.73 µM | 1.72 µM | 8.13 µM | 6.14 µM | 3.51 | 15 µM | 3.27 | – | –
Cc1c(-c2ccc(-c3ccccc3F)cc2)nc2ccc(F)cc2c1C(=O)O | 66.7 µM and 71.7 µM and 294 µM | 139 µM and 577 µM | 190 µM and 684 µM | 111 µM and 219 µM | 142 µM and 235 µM | 115 µM and 129 µM | 86.5 µM and 603 µM | 181 µM and 492 µM | 48.4 µM and 164 µM | – | 0.488 µM and 1.16 µM | 0.0742 µM and 0.557 µM | 6.76 µM and 24.4 µM | 0.639 µM and 0.5 µM | 19.7 µM and 55.9 µM | – | 0.617 µM and 1.67 µM | 0.5 | 0.5 | > 41.2
O=C(O)C1CC2C=CCC(C2)C1 (stereo not drawn) | > 100 µM | > 100 µM | > 100 µM | > 100 µM | > 100 µM | – | > 100 µM | > 100 µM | > 100 µM | > 100 | – | – | – | – | – | – | – | – | – | –
CCOC1=C/C(=N\Nc2ccc([N+](=O)[O-])cc2)CCC1 | > 100 µM | > 100 µM | – | > 100 µM | 67.9 µM | – | > 100 µM | 34.8 µM | 67.4 µM | > 100 | – | – | – | – | – | – | – | – | – | –
CCCCS(=O)(=O)c1cc(Nc2ccc(O)c3c2C(=O)c2ccccc2C3=O)ccc1C | > 100 µM | > 100 µM | > 100 µM | > 100 µM | > 100 µM | > 100 µM | > 100 µM | > 100 µM | > 100 µM | – | > 100 µM | > 100 µM | 2.87 µM | > 100 µM | > 100 µM | – | > 100 µM | 2.77 | > 100 | > 100
COc1c(OC2OC(C)C(O)C(O)C2O)c(OC)c2oc(-c3ccc(O)cc3)cc(=O)c2c1O (stereo not drawn) | > 100 µM | > 100 µM | > 100 µM | – | > 100 µM | > 100 µM | > 100 µM | > 100 µM | 38.4 µM | 93.5 | 35.7 µM | 31.4 µM | – | 30 µM | 37.2 µM | 19.7 | 30.7 µM | 16.6 | 15.4 | 86.3
C=C(CN1CCc2ccccc2C1)c1ccc(CCCC(=O)Nc2ccccc2N)cc1 | 15.3 µM | 32.1 µM | > 100 µM | 33 µM | 30.4 µM | 43.2 µM | 52.9 µM | > 100 µM | 30.8 µM | – | 15.6 µM | 3.06 µM | 15.8 µM | 13.1 µM | 21.1 µM | – | 25.9 µM | 15.1 | 1.28 | 19.4

— PubChem BioAssay (NCI)
